Laboratory results: patent publication US8815909B2, “Diaminocyclohexane compounds and uses thereof” (Bristol-Myers Squibb Company, priority 2011, dated 2014)
Like-named read-outs stand apart in the source and are kept apart here.

Molecular target: T1, human Y4 receptor (Homo sapiens, UniProt P50391)
T1 construct: expressed in transfected cells
Assay: NPY4 cAMP HTRF Agonist Assay (inhibitory cAMP assay, Gi activation by Y4 agonism)
Format: cell-based
Conditions: read-out: hY4 CAMP EC50
How it was run: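 Y4 agonism read as lowered forskolin-stimulated cAMP (HTRF, 1 h detection at room temperature). Stable human Y4 CHO clone, 5000 cells/well, incubated 30 min at room temperature with compounds plus forskolin and IBMX in PBS.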

T1 sequence (P50391 whole entry): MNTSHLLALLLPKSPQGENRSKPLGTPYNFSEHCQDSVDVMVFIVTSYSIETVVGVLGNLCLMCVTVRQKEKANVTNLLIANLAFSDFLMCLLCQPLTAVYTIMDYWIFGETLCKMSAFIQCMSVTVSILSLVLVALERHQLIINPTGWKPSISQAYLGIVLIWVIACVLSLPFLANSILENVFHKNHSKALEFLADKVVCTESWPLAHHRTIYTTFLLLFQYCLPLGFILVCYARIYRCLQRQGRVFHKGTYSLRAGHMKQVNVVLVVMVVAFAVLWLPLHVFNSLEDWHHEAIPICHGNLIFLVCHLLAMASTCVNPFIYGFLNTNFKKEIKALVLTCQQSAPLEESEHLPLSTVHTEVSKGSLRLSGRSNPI

| SMILES | EC50 (TABLE 2, R2 is Phenyl-CN) [nM] | also measured |
| --- | --- | --- |
| N#Cc1ccc(N2CCC[C@H](N[C@@H]3CCCC[C@H]3Nc3ncc(-c4cccc(C(N)=O)c4)o3)C2)cc1 [Example 265] | 2 | – |
| N#Cc1ccc(N2C[C@@H]3C[C@H](N[C@@H]4CCCC[C@H]4Nc4ncc(-c5cccc(C#N)c5)o4)[C@H]2C3)cc1 [Example 266] | 181 | – |
| C[C@@H](O)c1cccc(-c2ccnc(N[C@@H]3CCCC[C@H]3N[C@H]3CCCN(c4ccc(C#N)cc4)C3)c2)c1 [Example 267] | 3 | – |
| C[C@H](O)c1cccc(-c2ccnc(N[C@@H]3CCCC[C@H]3N[C@H]3CCCN(c4ccc(C#N)cc4)C3)c2)c1 [Example 268] | 8 | – |
| N#Cc1ccc(N2CCC[C@H](N[C@@H]3CCCC[C@H]3Nc3cc(-c4cc(C#N)cs4)ccn3)C2)cc1 [Example 269] | 223 | – |
| N#Cc1ccc(N2CCC[C@H](N[C@@H]3CCCC[C@H]3Nc3cc(-c4ccccn4)ccn3)C2)cc1 [Example 270] | 468 | – |
| Cc1ccc(-c2ccnc(N[C@@H]3CCCC[C@H]3N[C@H]3CCCN(c4ccc(C#N)cc4)C3)c2)cc1 [Example 271] | 461 | – |
| N#Cc1ccc(N2CCC[C@H](N[C@@H]3CCCC[C@H]3Nc3cc(-c4ccc(C#N)s4)ccn3)C2)cc1 [Example 273] | 542 | – |
| N#Cc1ccc(N2CCC[C@H](N[C@@H]3CCCC[C@H]3Nc3cc(-c4ccccc4C#N)ccn3)C2)cc1 [Example 274] | 272 | – |
| N#Cc1ccc(N2CCC[C@H](N[C@@H]3CCCC[C@H]3Nc3cc(-c4ccccc4N)ccn3)C2)cc1 [Example 275] | 872 | – |
| N#Cc1ccc(N2CCC[C@H](N[C@@H]3CCCC[C@H]3Nc3cc(-c4ccccc4O)ccn3)C2)cc1 [Example 276] | 120 | – |
| CC(=O)Nc1cc(-c2ccnc(N[C@@H]3CCCC[C@H]3N[C@H]3CCCN(c4ccc(C#N)cc4)C3)c2)ccn1 [Example 277] | 8 | – |
| CS(=O)(=O)NCc1cccc(-c2ccnc(N[C@@H]3CCCC[C@H]3N[C@H]3CCCN(c4ccc(C#N)cc4)C3)c2)c1 [Example 278] | 24 | – |
| N#Cc1ccc(N2CCC[C@H](N[C@@H]3CCCC[C@H]3Nc3cc(-c4cccc(N)c4)ccn3)C2)cc1 [Example 279] | 12 | – |
| N#Cc1ccc(N2CCC[C@H](N[C@@H]3CCCC[C@H]3Nc3cc(-n4cccc4)ccn3)C2)cc1 [Example 280] | 43 | – |
| N#Cc1ccc(N2CCC[C@H](N[C@@H]3CCCC[C@H]3Nc3cc4ccccc4cn3)C2)cc1 [Example 281] | 152 | – |

| SMILES | EC50 (TABLE 2, R2 is Phenyl-CN) [nM] | also measured |
| --- | --- | --- |
| COC(=O)Nc1cccc(-c2cnc(N[C@@H]3CCCC[C@H]3N[C@H]3CCCN(c4ccc(C#N)cc4)C3)o2)c1 [Example 282] | 1 | – |
| N#Cc1ccc(N2CCC[C@H](N[C@@H]3CCCC[C@H]3Nc3ncc4cc(F)ccc4n3)C2)cc1 [Example 283] | 308 | – |
| N#Cc1ccc(N2CCC[C@H](N[C@@H]3CCCC[C@H]3Nc3cc(-n4cccn4)ccn3)C2)cc1 [Example 284] | 176 | – |
| N#Cc1ccc(-c2cnc(N[C@@H]3CCCC[C@H]3N[C@H]3CCCN(c4ccc([N+](=O)[O-])cc4)C3)o2)cc1 [Example 285] | – | EC50 (TABLE 3, R2 is Phenyl-NO2): 26 nM |
| O=[N+]([O-])c1ccc(N2CCC[C@H](N[C@@H]3CCCC[C@H]3NC3=NOC(c4ccccc4)C3)C2)cc1 (stereo partly shown) [Example 286] | – | EC50 (TABLE 3, R2 is Phenyl-NO2): 74 nM |
| C[C@]1(N[C@@H]2CCCC[C@H]2Nc2ncc(-c3ccc(OC(F)(F)F)cc3)o2)CCCN(c2ccc([N+](=O)[O-])cc2)C1 [Example 287] | – | EC50 (TABLE 3, R2 is Phenyl-NO2): 1 nM |
| N#Cc1cccc(-c2ccnc(N[C@@H]3CCCC[C@H]3N[C@H]3C[C@@H]4C[C@H]3N(c3ccc([N+](=O)[O-])cc3)C4)c2)c1 [Example 293] | – | EC50 (TABLE 3, R2 is Phenyl-NO2): 163 nM |
| NC(=O)c1cccc(-c2ccnc(N[C@@H]3CCCC[C@H]3N[C@H]3C[C@@H]4C[C@H]3N(c3ccc([N+](=O)[O-])cc3)C4)c2)c1 [Example 294] | – | EC50 (TABLE 3, R2 is Phenyl-NO2): 41 nM |
| O=[N+]([O-])c1ccc(N2C[C@@H]3C[C@H](N[C@@H]4CCCC[C@H]4Nc4cc(Cl)ncn4)[C@H]2C3)cc1 [Example 295] | – | EC50 (TABLE 3, R2 is Phenyl-NO2): 122 nM |
| O=[N+]([O-])c1ccc(N2C[C@@H]3C[C@H](N[C@@H]4CCCC[C@H]4Nc4cc(-c5ccc(OC(F)(F)F)cc5)ncn4)[C@H]2C3)cc1 [Example 296] | – | EC50 (TABLE 3, R2 is Phenyl-NO2): 68 nM |
| NC(=O)c1cccc(-c2cc(N[C@@H]3CCCC[C@H]3N[C@H]3C[C@@H]4C[C@H]3N(c3ccc([N+](=O)[O-])cc3)C4)ncn2)c1 [Example 297] | – | EC50 (TABLE 3, R2 is Phenyl-NO2): 163 nM |
| C[C@]1(N[C@@H]2CCCC[C@H]2Nc2ncc(-c3cccc(C(N)=O)c3)o2)CCCN(c2ccc(C#N)cn2)C1 [Example 298] | – | EC50 (TABLE 4, R2 is Pyridinyl-CN): 23 nM |
| N#Cc1ccc(N2C[C@@H]3C[C@H](N[C@@H]4CCCC[C@H]4Nc4cc(-c5cccc(C(N)=O)c5)ccn4)[C@H]2C3)nc1 [Example 299] | – | EC50 (TABLE 4, R2 is Pyridinyl-CN): 392 nM |
| N#Cc1ccc(N2CCC[C@H](N[C@@H]3CCCC[C@H]3Nc3cc(-c4cccc(C(N)=O)c4)ccn3)C2)nc1 [Example 300] | – | EC50 (TABLE 4, R2 is Pyridinyl-CN): 130 nM |
| C[C@]1(N[C@@H]2CCCC[C@H]2Nc2cc(-c3cccc(C(N)=O)c3)ccn2)CCCN(c2ccc(C#N)cn2)C1 [Example 301] | – | EC50 (TABLE 4, R2 is Pyridinyl-CN): 66 nM |
